Measurements reported in ChEMBL document CHEMBL5036329, “4-Methyl-1,2,3-Triazoles as N-Acetyl-Lysine Mimics Afford Potent BET Bromodomain Inhibitors with Improved Selectivity” (J Med Chem, 2021).

Legend:
[1] = Microsomal stability in human liver microsomes assessed as fraction unbound measured upto 60 mins in presence of NADPH regenerating system by LC-MS analysis; format: ADME, Microsome; details: 1 h
[2] = molecular target: T1, Bromodomain-containing protein 3 (Homo sapiens, UniProt Q15059); experiment: Binding affinity to human partial length BRD3 BD2 expressed in bacterial expression system assessed as dissociation constant by BROMOscan assay
[3] = molecular target: T1, Bromodomain-containing protein 3; experiment: Binding affinity to human partial length BRD3 BD1 expressed in bacterial expression system assessed as dissociation constant by BROMOscan assay
[4] = molecular target: T2, Bromodomain testis-specific protein (Homo sapiens, UniProt Q58F21); experiment: Binding affinity to human partial length BRDT BD1 expressed in bacterial expression system assessed as dissociation constant by BROMOscan assay
[5] = molecular target: T2, Bromodomain testis-specific protein; experiment: Binding affinity to human partial length BRDT BD2 expressed in bacterial expression system assessed as dissociation constant by BROMOscan assay

T1 sequence (Q15059 whole entry): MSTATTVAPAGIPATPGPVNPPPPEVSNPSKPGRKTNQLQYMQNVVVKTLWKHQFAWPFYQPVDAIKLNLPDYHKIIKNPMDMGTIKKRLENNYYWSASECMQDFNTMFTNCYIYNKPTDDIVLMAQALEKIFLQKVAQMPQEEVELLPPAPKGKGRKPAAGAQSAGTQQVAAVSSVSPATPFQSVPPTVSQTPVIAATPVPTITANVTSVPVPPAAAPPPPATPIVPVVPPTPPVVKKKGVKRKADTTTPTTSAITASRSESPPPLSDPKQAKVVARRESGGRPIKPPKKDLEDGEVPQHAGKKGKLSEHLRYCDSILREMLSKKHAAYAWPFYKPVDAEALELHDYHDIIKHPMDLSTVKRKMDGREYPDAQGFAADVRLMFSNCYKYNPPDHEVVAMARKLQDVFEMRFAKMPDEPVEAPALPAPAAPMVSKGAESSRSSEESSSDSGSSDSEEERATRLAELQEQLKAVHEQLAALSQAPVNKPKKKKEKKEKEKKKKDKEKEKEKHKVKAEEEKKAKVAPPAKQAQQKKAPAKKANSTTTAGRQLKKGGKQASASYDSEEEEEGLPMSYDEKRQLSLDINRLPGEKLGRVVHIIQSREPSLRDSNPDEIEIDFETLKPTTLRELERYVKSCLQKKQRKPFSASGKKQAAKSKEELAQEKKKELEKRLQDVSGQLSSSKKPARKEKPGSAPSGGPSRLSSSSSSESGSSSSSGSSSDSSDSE

Compound | Fu [1] | also measured
Cc1cc(C)cc(Oc2cccc(-c3c(C)nnn3C3CCNCC3)n2)c1 | 0.13 | –
Cc1nnn(C2CCNCC2)c1-c1cccc(Oc2cc(C3CC3)cc(C3CC3)c2)n1 | 0.12 | –
Cc1nnn(C2CCNCC2)c1-c1cccc(Oc2cc(Cl)cc(Cl)c2)n1 | 0.11 | –
Cc1nnn(C2CCNCC2)c1-c1cccc(Oc2cc(Br)cc(Br)c2)n1 | 0.09 | –

Second part, led by results:

Fu [1] | Compound | also measured
0.08 | Cc1cc(C)cc(Nc2nccc(-c3c(-c4ccc(C(F)(F)F)cc4)ncn3C3CCN(CCN)CC3)n2)c1 | –
0.13 | Cc1nnn(C2CCN(CCN(C)C)CC2)c1-c1cccc(Oc2cc(Br)ccc2Br)n1 | –
0.14 | Cc1cc(C)cc(Oc2cccc(-c3c(C)nnn3C3CCN(CCN(C)C)CC3)n2)c1 | Kd [2]: 310 nM; Kd [3]: 20 nM; Kd [4]: 15 nM; Kd [5]: 250 nM
